The results in this text go back to patent US5135746A, “Control of protozoal disease” (Takeda Chemical Industries, Ltd., priority 1989, dated 1992).

Data set [1] deals with Laboratory Standard Strain Eimeria tenella. Nature of the data set: Anticoccidial effect in White Leghorn chicks infected with laboratory standard strain Eimeria tenella, drugs in feed for 9 days (Table 1). The data set is classed as in vivo. On the set-up: Caecal Lesion: scale not given here. The conditions noted are these: for OPG: day7; for Caecal Lesion: day-8. How it is done:
(§1) The effect of the drugs to coccidiosis was examined using chicks. Namely, nine-day-old White Leghorn male chicks were divided into groups each of which consists of 3 chicks, and 5×10^4 sporulated oocysts per chick of laboratory standard strain Eimeria tenella were orally inoculated into the chicks in all groups except for the control group in which the chicks were not infected and not dosed with the drugs, at 24 hours after the start of dosing. Prescribed amounts of respective plant components dried and crushed and monensin sodium or salinomycin sodium were added to the basal feed (SDL No. 1: Nippon Haigo Shiryo), and continuously administered by the free ingesting method for 9 days from 24 hours before infection to 8 days after infection. The weight of each chick was measured, and the bloody dropping were observed. Further, the chicks were autopsied at day-8 after infection to examine the caecel lesion. Thus, the anticoccidial effect of the administered test drugs was determined.
Note ^1) Weight gain ratio = (Average weight gain for each test
Note ^2) The bloody feces index is indicated by the number of bloody
Note ^3) The caecal lesion is indicated by an average score when
Note ^5) The ND means "not detected".

Data set [2] can be described thus: Acute toxicity by oral administration to mice. The conditions noted are these: mouse, in vivo.
In data set [3] the test system is Field Chicken Coocidia of Mixed Species. Nature of the data set: Combined effect of monensin and Rhizophoraceae bark in chicks infected with field coccidia of mixed species, 10,000 oocysts per chick (Table 6). As to conditions: 80 ppm in feed. The data set is classed as in vivo, mixed strain containing five or more kinds of coccidia. How it is done: as §1
Using the mixed strain (large size oocysts: 5%, middle size oocysts: 72%, small size oocysts: 23%) collected in the field and containing five or more kinds of coccidia, the combined administration effect of monensin and Rhizophoraceae bark against chicks infected with 10,000 oocysts per chick was examined, by an infection experiment method in accordance with the method in Example 1. In Table 6, the general intestine lesion value was obtained by converting the sum of values judged by the five steps from 0 to +4 to a value per chick, for the lesion of upper, middle and lower parts of small intestine and caecum, according to the method described in Johnson and Reid, Exp. Parasitol. 28, 30-36 (1970). Other determinations were carried out in the same manner as with Example 1.

For data set [4], the system named is Laboratory Standard Strain Eimeria tenella (AMD). Nature of the data set: Combined effect of ionophore antibiotics and Rhizophoraceae bark in infected chicks (Table 5). Type of data set: in vivo. How it is done: as §1
The combined administration effect of the ionophore antibiotics and Rhizophoraceae bark was examined, by an infection experiment method in accordance with the method in Example 1.

Data set [5] relates to Field Isolate Eimeria tenella (AMD). Nature of the data set: Anticoccidial effect in chicks infected with field isolate Eimeria tenella (AMD) resistant against ionophore antibiotics, 30,000 oocysts per chick (Tables 2-4). Type of data set: in vivo.

Several values for one entry are separate records, joined by “and”; a condition that tells them apart may be missing. Equal entries are not always repeated.

Take `C=CCc1ccc(O)c(-c2ccc(O)c(CC=C)c2)c1` [Honokiol, honokiol]: in data set [1] (125 ppm in feed), the Mortality was 1/3, the “No. of Bloody Droppings” value was determined as 13.3, the “Weight Gain Ratio” value stood at 41.6% and the OPG stood at 5.1 log. In data set [1] (125 ppm in feed), the “Caecal Lesion” value is recorded as 4.0. For the same molecule, in data set [1] (500 ppm in feed), the Mortality is recorded as 0/3, the “No. of Bloody Droppings” value was 1.0, the “Weight Gain Ratio” value turned out to be 99.4% and the OPG is 4.9 log. Also, in data set [1] (500 ppm in feed), the “Caecal Lesion” value amounted to 3.3.
Consider `C=CCc1ccc(O)c(-c2cc(CC=C)ccc2O)c1` [Magnolol], for which, in data set [1] (125 ppm in feed), the Mortality is listed as 0/3, the “No. of Bloody Droppings” value stood at 13.3, the “Weight Gain Ratio” value turned out to be 62.5% and the OPG came to 5.3 log. In addition, the “Caecal Lesion” value in data set [1] (125 ppm in feed) amounted to 4.0. Also, in data set [1] (250 ppm in feed), the Mortality is reported as 0/3, the “No. of Bloody Droppings” value was 3.7, the “Weight Gain Ratio” value amounted to 89.3% and the OPG amounted to 5.8 log. The “Caecal Lesion” value in data set [1] (250 ppm in feed) is given as 4.0. Also, in data set [1] (500 ppm in feed), the Mortality was 0/3, the “No. of Bloody Droppings” value is 1.3, the “Weight Gain Ratio” value was 94.5% and the OPG was 3.2 log. Also, the “Caecal Lesion” value in data set [1] (500 ppm in feed) turned out to be 3.3. Further, in data set [2], the median lethal dose (LD50) was determined as 2200 mg/kg.
Regarding `CCC1(C2OC(C3OC(O)(CO)C(C)CC3C)CC2C)CCC(C2(C)CCC3(CC(O)C(C)C(C(C)C(OC)C(C)C(=O)O)O3)O2)O1` (stereo not shown) [Monensin, monensin sodium], the Mortality in data set [3] is reported as 1/6; in data set [4] (80 ppm in feed), 0/9; in data set [1] (40 ppm in feed) it was 1/3; in data set [1] (60 ppm in feed) it was 0/3; in data set [1] (80 ppm in feed) it was 0/6; in data set [1] (120 ppm in feed), 0/6. Moreover, the Mortality in data set [5] (80 ppm in feed), in data set [5] (100 ppm in feed), in data set [5] (160 ppm in feed) and in data set [5] (240 ppm in feed) was 0/5 each time. Also, the “No. of Bloody Droppings” value is on record as 6.0 in data set [3]; 5.0 in data set [4] (80 ppm in feed); 13.3 in data set [1] (40 ppm in feed); 7.3 in data set [1] (60 ppm in feed); 1.0 in data set [1] (80 ppm in feed); 0 in data set [1] (120 ppm in feed). The “No. of Bloody Droppings” value in data set [5] (80 ppm in feed) is 10.0 and 9.0; in data set [5] (100 ppm in feed) it was 8.0; in data set [5] (160 ppm in feed), 0; in data set [5] (240 ppm in feed), 0. Further, the “Weight Gain Ratio” value in data set [3] is reported as 89%; in data set [4] (80 ppm in feed), 88%; in data set [1] (40 ppm in feed) it was 36.7%; in data set [1] (60 ppm in feed) it was 92.9%; in data set [1] (80 ppm in feed), 103.2%; in data set [1] (120 ppm in feed), 103.2%. The “Weight Gain Ratio” value was 54.8% and 72.3% in data set [5] (80 ppm in feed); 72.6% in data set [5] (100 ppm in feed); 81.5% and 86.5% in data set [5] (160 ppm in feed); 46.5% in data set [5] (240 ppm in feed). Moreover, the “Caecal Lesion” value in data set [3] (general intestine lesion value) came out at 5.5; in data set [4] (80 ppm in feed), 3.2; in data set [1] (40 ppm in feed) it was 4.0; in data set [1] (60 ppm in feed) it was 4.0; in data set [1] (80 ppm in feed) it was 2.2; in data set [1] (120 ppm in feed), 0. Besides, the “Caecal Lesion” value is 4.0 and 3.8 in data set [5] (80 ppm in feed); 4.0 in data set [5] (100 ppm in feed); 0 in data set [5] (240 ppm in feed). Moreover, the OPG was 4.5 log in data set [1] (40 ppm in feed); 4.6 log in data set [1] (60 ppm in feed); 4.3 log in data set [1] (80 ppm in feed); 3.4 log in data set [1] (120 ppm in feed); 6.2 log and 6.1 log in data set [5] (80 ppm in feed); 6.1 log in data set [5] (100 ppm in feed). Besides, the OPG in data set [5] (160 ppm in feed) is 4.7 log. For the same molecule, in data set [5] (in feed), the “concentration at which sufficient antiprotozoal activity is shown” value was at least 160 ppm.
For `CC[C@@H](C(=O)[C@@H](C)[C@@H](O)[C@H](C)[C@@H]1O[C@@H]([C@@H](CC)C(=O)O)CC[C@@H]1C)[C@H]1O[C@]2(C=C[C@@H](O)[C@]3(CC[C@@](C)([C@H]4CC[C@](O)(CC)[C@H](C)O4)O3)O2)[C@H](C)C[C@@H]1C` [Salinomycin, salinomycin sodium], in data set [4] (50 ppm in feed), the “Caecal Lesion” value is 3.6, the Mortality is 1/9, the “No. of Bloody Droppings” value was determined as 7.0 and the “Weight Gain Ratio” value came to 62%. In addition, in data set [5] (50 ppm in feed), the “Caecal Lesion” value came to 3.2, the Mortality is 0/5, the “No. of Bloody Droppings” value stood at 9.0 and the OPG was determined as 5.8 log. Further, the “Weight Gain Ratio” value in data set [5] (50 ppm in feed) is 80.3%.
